Results published in patent publication US20010049373A1, “Materials and methods for killing nematodes and nematode eggs” (priority 2000, published 2001).

Tests used:
Caenorhabditis elegans [1] = experiment: C. elegans L1 larvae dose-response, 5 day visual viability score (Examples 2 and 7); assay type: in vivo; set-up: key: Dead: only stiff L1s (no movement); Dead (L4): worms are dead, but at a later larval stage; majority of worms are L1 (based on size); majority of worms are L2 (based on size); majority of worms are L3 (based on size); majority of worms are L4 (based on size); AD: majority of worms are adult; #AD: 5 adult worms or less; B!: sterile (0-25 progeny); B: low broodsize (25-100 progeny); ˜B: moderate broodsize (100-250 progeny); <: reduced broodsize (250-500 progeny); OK: no effect (˜1000+ progeny)
Description: Caenorhabditis elegans adults were grown on Nematode Growth Medium (NGM) until they produced eggs, then the adults were removed.
The eggs were allowed to hatch, and the L1 larvae collected. See The Neniatode Caenorhabditis elegans (1988) Cold Spring Harbor Laboratory Press. Using a Matrix Programmable Pipette, the L1s were distributed into 96-well tissue culture plates, 20 L1 in 50 μl NGM per well. Antibiotic/Antimyotic was added to each well, and 1% by weight E. coli strain HB101. The subject anthelmintic compounds were stored at 5 mM in 100% DMSO. 0.7 μl of compounds 1-31 were added to the left-most column of wells to yield a final concentration of 70 μM in 1.4% DMSO, with 1.4% DMSO only as the control. The compounds were then subjected to 5 more 3-fold dilutions from left to right to yield 6 column concentrations of 70 μM, 23.3 μM, 7.8 μM, 2.6 μM, 0.9 μM, and 0.3 μM. Plates were stored in air-tight Rubbermaid plastic boxes at 20° C. The nematodes had cleared all control wells by day 4, and nematode viability was scored by visual examination under a 100× dissecting microscope on day 5. A visual viability scoring system was used as follows:
If several classes of worms exist in a well, then all classes are scored. If adults are present, then the brood score is also recorded. Thus, “L1/L2” would mean a mixture of L1's and L2's are present in the well. “L4/#AD/B” would mean that a mixture of L4's and adults are resent in the well. The “#AD” would mean that there are 6 or less adults, and the “B” would mean that there were 100 progeny or less.
Column VI has a compound concentration of 70 μM with sequential 3-fold dilutions reported in columns V2, V3, V4, V5, and V6, respectively, such that the V6 concentration was 0.3 μM.
(§1) The nematicidal activity of anthelmintic Compositions 48-118 were determined in accordance with the procedure outlined in Example 2.

Caenorhabditis elegans [2] = experiment: HTS runs (initial and follow-up): mOD, % Run and visual score (Table 3); assay type: in vivo; set-up: key to Initial HTS Run Visual Score / Follow-up HTS Run Visual Score: Dead: only stiff L1s (no movement); Dead (L4): worms are dead, but at a later larval stage; majority of worms are L1 (based on size); majority of worms are L2 (based on size); majority of worms are L3 (based on size); majority of worms are L4 (based on size); AD: majority of worms are adult; #AD: 5 adult worms or less; B!: sterile (0-25 progeny); B: low broodsize (25-100 progeny); ˜B: moderate broodsize (100-250 progeny); <: reduced broodsize (250-500 progeny); OK: no effect (˜1000+ progeny)
Description: as §1

[3] = 0.3 μM (procedure of Example 2), day 5, Table 3
[4] = 0.9 μM (procedure of Example 2), day 5, Table 3
[5] = 2.6 μM (procedure of Example 2), day 5, Table 3
[6] = 7.8 μM (procedure of Example 2), day 5, Table 3
[7] = 70 μM (procedure of Example 2), day 5, Table 3
[8] = 0.3 μM, viability scored day 5, Table 1
[9] = 2.6 μM, viability scored day 5, Table 1
[10] = 7.8 μM, viability scored day 5, Table 1
[11] = 23.3 μM, viability scored day 5, Table 1
[12] = 70 μM, viability scored day 5, Table 1
[13] = 23.3 μM (procedure of Example 2), day 5, Table 3
[14] = 0.9 μM, viability scored day 5, Table 1

Row | Structure (SMILES) | 5 Day Visual Score V6 (Caenorhabditis elegans [1]; [8]) | 5 Day Visual Score V4 (Caenorhabditis elegans [1]; [9]) | 5 Day Visual Score V3 (Caenorhabditis elegans [1]; [10]) | 5 Day Visual Score V2 (Caenorhabditis elegans [1]; [11]) | 5 Day Visual Score V1 (Caenorhabditis elegans [1]; [12]) | other results
1 | CC(C)(C)OC(=O)NCc1ccc(-c2cccc(C(=O)Nc3ccc(S(N)(=O)=O)cc3)c2)cc1 [AKC 390] | – | – | – | – | – | 5 Day Visual Score V6 (Caenorhabditis elegans [1]; [3]): OK (no effect (˜1000+ progeny)); 5 Day Visual Score V5 (Caenorhabditis elegans [1]; [4]): OK (no effect (˜1000+ progeny)); 5 Day Visual Score V4 (Caenorhabditis elegans [1]; [5]): OK (no effect (˜1000+ progeny)); 5 Day Visual Score V3 (Caenorhabditis elegans [1]; [6]): OK (no effect (˜1000+ progeny)); 5 Day Visual Score V1 (Caenorhabditis elegans [1]; [7]): L1; Follow-up HTS Run % Run (Caenorhabditis elegans [2]): 110%; Follow-up HTS Run Visual Score (Caenorhabditis elegans [2]): L4; Follow-up HTS Run mOD (Caenorhabditis elegans [2]): 148 mOD; Initial HTS Run % Run (Caenorhabditis elegans [2]): 133%; Initial HTS Run Visual Score (Caenorhabditis elegans [2]): B! (sterile (0-25 progeny)); Initial HTS Run mOD (Caenorhabditis elegans [2]): 260 mOD
2 | O=C(NCC1CCC(c2nc(-c3ccccc3)no2)CC1)Nc1ccc(OC(F)(F)F)cc1 (centres unmarked) [AKC 113] | L4/#AD/B | Dead(L2/L | Dead | Dead | Dead | –
3 | Fc1ccc(F)c(CNc2cc(Oc3cccc(Cl)c3)ncn2)c1 [AKC 354] | – | – | – | – | – | 5 Day Visual Score V6 (Caenorhabditis elegans [1]; [3]): < (reduced broodsize (250-500 progeny)); 5 Day Visual Score V5 (Caenorhabditis elegans [1]; [4]): OK (no effect (˜1000+ progeny)); 5 Day Visual Score V4 (Caenorhabditis elegans [1]; [5]): < (reduced broodsize (250-500 progeny)); 5 Day Visual Score V3 (Caenorhabditis elegans [1]; [6]): #AD/˜B; 5 Day Visual Score V1 (Caenorhabditis elegans [1]; [7]): Dead; Follow-up HTS Run % Run (Caenorhabditis elegans [2]): 108%; Follow-up HTS Run Visual Score (Caenorhabditis elegans [2]): B (low broodsize (25-100 progeny)); Follow-up HTS Run mOD (Caenorhabditis elegans [2]): 146 mOD; Initial HTS Run % Run (Caenorhabditis elegans [2]): 137%; Initial HTS Run Visual Score (Caenorhabditis elegans [2]): 1AD/B; Initial HTS Run mOD (Caenorhabditis elegans [2]): 267 mOD
4 | CCC1CCCCN1c1cc(Oc2ccc(-c3ccccc3)cc2)ncn1 (centres unmarked) [AKC 148] | – | – | – | – | – | 5 Day Visual Score V6 (Caenorhabditis elegans [1]; [3]): ˜B (moderate broodsize (100-250 progeny)); 5 Day Visual Score V5 (Caenorhabditis elegans [1]; [4]): ˜B (moderate broodsize (100-250 progeny)); 5 Day Visual Score V3 (Caenorhabditis elegans [1]; [6]): Dead; 5 Day Visual Score V2 (Caenorhabditis elegans [1]; [13]): Dead; 5 Day Visual Score V1 (Caenorhabditis elegans [1]; [7]): Dead; Follow-up HTS Run % Run (Caenorhabditis elegans [2]): 126%; Follow-up HTS Run Visual Score (Caenorhabditis elegans [2]): Dead; Follow-up HTS Run mOD (Caenorhabditis elegans [2]): 170 mOD; Initial HTS Run % Run (Caenorhabditis elegans [2]): 143%; Initial HTS Run Visual Score (Caenorhabditis elegans [2]): Dead-Black Husk; Initial HTS Run mOD (Caenorhabditis elegans [2]): 278 mOD
5 | FC(F)(F)c1ccc(CNc2cc(Oc3cccc(Cl)c3)ncn2)cc1 [AKC 356] | – | – | – | – | – | 5 Day Visual Score V6 (Caenorhabditis elegans [1]; [3]): < (reduced broodsize (250-500 progeny)); 5 Day Visual Score V5 (Caenorhabditis elegans [1]; [4]): OK (no effect (˜1000+ progeny)); 5 Day Visual Score V4 (Caenorhabditis elegans [1]; [5]): OK (no effect (˜1000+ progeny)); 5 Day Visual Score V2 (Caenorhabditis elegans [1]; [13]): Dead; 5 Day Visual Score V1 (Caenorhabditis elegans [1]; [7]): Dead; Follow-up HTS Run % Run (Caenorhabditis elegans [2]): 122%; Follow-up HTS Run Visual Score (Caenorhabditis elegans [2]): L2; Follow-up HTS Run mOD (Caenorhabditis elegans [2]): 165 mOD; Initial HTS Run % Run (Caenorhabditis elegans [2]): 139%; Initial HTS Run Visual Score (Caenorhabditis elegans [2]): Dead; Initial HTS Run mOD (Caenorhabditis elegans [2]): 272 mOD
6 | O=C(Nc1ccc(Br)cc1)N1CCC(c2nc(-c3ccccc3)no2)CC1 [AKC 108] | – | L1 | L1 | Dead | Dead | –
7 | COc1ccc(C2=NOC(c3ccc(-c4ccccc4)cc3)C2C(=O)NCCc2ccccc2F)cc1 (centres unmarked) [AKC 121] | < (reduced broodsize (250-500 progeny)) | #AD/˜B | – | L1 | L1 | –
8 | CCOc1cccc(C2ON=C(c3ccccc3OCC)C2C(=O)NCc2ccc(OC(F)(F)F)cc2)c1 (centres unmarked) [AKC 125] | < (reduced broodsize (250-500 progeny)) | L2 | L2 | L2/Dead(L4) | L2/Dead(L3) | –
9 | COc1ccccc1-c1noc(C(C)CNC(=O)Nc2ccc(OC(F)(F)F)cc2)n1 (centres unmarked) [AKC 111] | OK (no effect (˜1000+ progeny)) | Dead(L3/L | L2 | Dead | Dead | –
10 | Cc1ccc(-c2noc(C3CCC(CNC(=O)Nc4ccc(OC(F)(F)F)cc4)CC3)n2)cc1C (centres unmarked) [AKC 112] | OK (no effect (˜1000+ progeny)) | – | – | – | – | 5 Day Visual Score V5 (Caenorhabditis elegans [1]; [14]): #AD/˜B
11 | O=C(NCCCCCc1nc(-c2ccccc2)no1)Nc1ccc(OC(F)(F)F)cc1 [AKC 115] | – | Dead(L2) | L2/Dead(L2) | Dead(L2/L3) | Dead | 5 Day Visual Score V5 (Caenorhabditis elegans [1]; [14]): Dead(L2/L
12 | CCOc1ccc(C2ON=C(c3ccc(N(C)C)cc3)C2C(=O)NCCc2ccc(F)cc2)cc1 (centres unmarked) [AKC 123] | #AD/˜B | < (reduced broodsize (250-500 progeny)) | – | – | L1 | –
13 | O=C(NCCc1ccccc1F)C1C(c2ccccc2Cl)=NOC1c1ccc(-c2ccccc2)cc1 (centres unmarked) [AKC 110] | L1 | L1 | L1 | L1 | L1 | 5 Day Visual Score V5 (Caenorhabditis elegans [1]; [14]): L1
14 | O=C(Nc1ccc(Br)cc1)NC1CCC(c2nc(-c3ccccc3)no2)CC1 (centres unmarked) [AKC 114] | B (low broodsize (25-100 progeny)) | L3/Dead(L | L3 | L3/Dead(L4) | Dead | –
15 | CC(C)(C)C1=NOC(c2ccc(-c3ccccc3)cc2)C1C(=O)NCCc1ccccc1F (centres unmarked) [AKC 120] | OK (no effect (˜1000+ progeny)) | – | L1 | – | L1 | 5 Day Visual Score V5 (Caenorhabditis elegans [1]; [14]): #AD/˜B
16 | O=C(Nc1ccc(OC(F)(F)F)cc1)NC1CCC(c2nc(-c3ccccc3)no2)CC1 (centres unmarked) [AKC 107] | L2/Dead(L | Dead(L4) | – | Dead(L2/L3) | Dead | –
17 | CCOc1cccc(C2ON=C(c3ccccc3OCC)C2C(=O)NCCc2ccc(OC)c(OCC)c2)c1 (centres unmarked) [AKC 124] | L4/#AD/B | L4/#AD/B | – | – | – | 5 Day Visual Score V5 (Caenorhabditis elegans [1]; [14]): L4/#AD/B
18 | O=C(NCCc1ccccc1F)C1C(c2ccc(F)cc2)=NOC1c1ccc(-c2ccccc2)cc1 (centres unmarked) [AKC 2153] | – | – | – | L1 | L1 | –
19 | CCOc1ccc(C2ON=C(c3ccc(F)cc3)C2C(=O)NCCc2ccc(F)cc2)cc1 (centres unmarked) [AKC 122] | OK (no effect (˜1000+ progeny)) | – | – | L1 | Dead | –
